The values that follow come from paper PMC12056728 (RSC Advances, 2025).

α-glucosidase (E.C.3.2.1.20), sequence (P53341 whole entry): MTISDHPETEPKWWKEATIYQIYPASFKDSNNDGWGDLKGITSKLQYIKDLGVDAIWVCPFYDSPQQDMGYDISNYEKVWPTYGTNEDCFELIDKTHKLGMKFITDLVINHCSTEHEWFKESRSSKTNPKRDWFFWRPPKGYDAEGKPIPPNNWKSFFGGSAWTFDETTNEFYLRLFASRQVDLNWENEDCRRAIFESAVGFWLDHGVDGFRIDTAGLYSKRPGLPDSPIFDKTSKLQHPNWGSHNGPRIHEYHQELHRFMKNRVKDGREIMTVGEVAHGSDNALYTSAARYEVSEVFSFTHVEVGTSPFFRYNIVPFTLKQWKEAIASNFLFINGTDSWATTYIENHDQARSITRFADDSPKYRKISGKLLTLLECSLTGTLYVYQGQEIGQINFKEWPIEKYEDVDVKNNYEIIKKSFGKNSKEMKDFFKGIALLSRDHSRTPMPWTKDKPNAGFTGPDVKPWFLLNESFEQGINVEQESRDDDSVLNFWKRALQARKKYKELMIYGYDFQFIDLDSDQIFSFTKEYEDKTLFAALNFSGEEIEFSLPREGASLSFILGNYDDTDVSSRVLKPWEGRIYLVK

The first experiment concerns the target α-glucosidase (E.C.3.2.1.20) (Saccharomyces cerevisiae, UniProt P53341). Kind of experiment: α-glucosidase inhibition assay. The class given is biochemical. The following applies: IC50 could not be determined.
For the molecule `O=C(NN=C1C(=O)N(CCOc2ccc(F)cc2)c2ccccc21)c1ccncc1` [1k, N′-(1-(2-(4-Fluorophenoxy)ethyl)-2-oxoindolin-3-ylidene)isonicotinohydrazide], the “α-glucosidase inhibitory activity (in words)” value is listed as “loss of inhibitory activity”.

Take `O=C(NN=C1C(=O)N(CCOc2ccc(F)cc2)c2ccccc21)c1cccnc1` [1j, N′-(1-(2-(4-Fluorophenoxy)ethyl)-2-oxoindolin-3-ylidene)nicotinohydrazide]: the “α-glucosidase inhibitory activity (in words)” value was “complete loss of inhibitory activity”.

The same experiment, now with this note: read-out: Percent inhibition (0.5 mM).
Take `O=C(NN=C1C(=O)N(CCOc2ccc(Cl)cc2)c2ccccc21)c1cccnc1` [1d, N′-(1-(2-(4-Chlorophenoxy)ethyl)-2-oxoindolin-3-ylidene)nicotinohydrazide]: the inhibition at 500 µM is 92.9%.

Consider `O=C(NN=C1C(=O)N(CCOc2ccc(Cl)cc2)c2ccccc21)c1ccncc1` [1e, N′-(1-(2-(4-Chlorophenoxy)ethyl)-2-oxoindolin-3ylidene)isonicotinohydrazide], for which the inhibition at 500 µM is 94.7%.

Take `O=C(NN=C1C(=O)N(CCOc2ccccc2)c2ccccc21)c1ccc(Br)cc1` [1c, 4-Bromo-N′-(2-oxo-1-(2-phenoxyethyl)indolin-3-ylidene)benzohydrazide]: the inhibition at 500 µM was 90.6%. On the same count and under the same terms, the value for `O=C(NN=C1C(=O)N(CCOc2ccc(Br)cc2)c2ccccc21)c1ccc(Br)cc1` [1i, 4-Bromo-N′-(1-(2-(4-bromophenoxy)ethyl)-2-oxoindolin-3-ylidene)benzohydrazide] was 94.9%; that for `O=C(NN=C1C(=O)N(CCOc2ccccc2)c2ccccc21)c1ccncc1` [1b, N′-(2-Oxo-1-(2-phenoxyethyl)indolin-3-ylidene)isonicotinohydrazide] was 94.1%.

In the case of `O=C(NN=C1C(=O)N(CCOc2ccccc2)c2ccccc21)c1cccnc1` [1a, N′-(2-Oxo-1-(2-phenoxyethyl)indolin-3-ylidene)nicotinohydrazide], the inhibition at 500 µM was determined as 75.6%. With `O=C(NN=C1C(=O)N(CCOc2ccc(F)cc2)c2ccccc21)c1ccncc1` [1k, N′-(1-(2-(4-Fluorophenoxy)ethyl)-2-oxoindolin-3-ylidene)isonicotinohydrazide], the inhibition at 500 µM turned out to be 39.3%. The same measure, in the same setting: to `O=C(NN=C1C(=O)N(CCOc2ccc(F)cc2)c2ccccc21)c1ccc(Br)cc1` [1l, 4-Bromo-N′-(1-(2-(4-fluorophenoxy)ethyl)-2-oxoindolin-3-ylidene)benzohydrazide] belongs 93.1%; to `O=C(NN=C1C(=O)N(CCOc2ccc(Cl)cc2)c2ccccc21)c1ccc(Br)cc1` [1f, 4-Bromo-N′-(1-(2-(4-chlorophenoxy)ethyl)-2-oxoindolin3ylidene)benzohydrazide], 94.5%; to `O=C(NN=C1C(=O)N(CCOc2ccc(Br)cc2)c2ccccc21)c1ccncc1` [1h, N′-(1-(2-(4-Bromophenoxy)ethyl)-2-oxoindolin-3-ylidene)isonicotinohydrazide], 89.9%. The same measure, in the same setting: to `O=C(NN=C1C(=O)N(CCOc2ccc(F)cc2)c2ccccc21)c1cccnc1` [1j, N′-(1-(2-(4-Fluorophenoxy)ethyl)-2-oxoindolin-3-ylidene)nicotinohydrazide] belongs 36%; to `O=C(NN=C1C(=O)N(CCOc2ccc(Br)cc2)c2ccccc21)c1cccnc1` [1g, N′-(1-(2-(4-Bromophenoxy)ethyl)-2-oxoindolin-3-ylidene)nicotinohydrazide], 92.1%.

For orientation: inhibition means the share of the control response that was lost under treatment.
